One may read the MIC as the lowest concentration found to suppress growth. Read a high MIC as weaker potency.

Experimental findings from US4393047A, “Antibiotic cytophagin and a process for producing the same” (Microbiochemical Research Foundation, priority 1981, dated 1983) are described below.

Data set [1] deals with Bacillus subtilis NRRL B-558. Put plainly: Minimum growth inhibitory concentration, agar dilution method. In kind it is cell-based. The settings on record: pH 7. An excerpt: (§1) **Determined by agar dilution method using a bouilon medium (pH:7).
In general terms: Agar dilution tests growth on a series of plates holding different concentrations.

In data set [2] the test system is Bacillus subtilis PCI 219. The data set is described as above. The settings on record: pH 7. Type of data set: cell-based.
Description: as §1

Another data set relates to Candida albicans 3147. Described as above. Type of data set: cell-based. The settings on record: pH 7.
Description: as §1

The test system of another data set is Escherichia coli K-12. The description is as above. Type of data set: cell-based. Conditions: pH 7.
Description: as §1

The subject of data set [3] is Micrococcus lysodeikticus IFO 3333. The data set is described as above. Type of data set: cell-based. Conditions: pH 7.
Description: as §1

The subject of data set [4] is Mycobacterium smegmatis ATCC 607. Described as above. In kind it is cell-based. Conditions: pH 7.
Description: as §1

Data set [5] concerns Pseudomonas aeruginosa A 3. The data set is described as above. In kind it is cell-based. The settings on record: pH 7.
Description: as §1

In another data set the test system is Sarcina lutea PCI 1001. The data set is described as above. In kind it is cell-based. The settings on record: pH 7.
Description: as §1

Data set [6] concerns Staphylococcus aureus FDA 209P. The description is as above. Type of data set: cell-based. Conditions: bouillon medium pH 7.
Description: as §1

Data set [7] has as its system Staphylococcus aureus MS 8800. The data set is described as above. Type of data set: cell-based. The settings on record: Staphylococcus aureus MS 8800, resistant to penicillin, tetracyclin, streptomycin and erythromycin, pH 7.
Description: as §1

Data set [8] has as its system Staphylococcus sp M-XX-0105. The data set is described as above. The settings on record: Staphylococcus sp M-XX-0105, resistant to amikacin, tobramycin and DKB, pH 7. In kind it is cell-based.
Description: as §1

The subject of data set [9] is various Gram-positive bacteria. Put plainly: Activity against the growth of Gram-positive bacteria (Table 1). Type of data set: cell-based. Conditions: qualitative, from Table 1.
Description: as §1

The test system of another data set is mouse. Put plainly: Acute toxicity in mouse. Type of data set: in vivo. The settings on record: ip., 200 mg/kg in DMSO/water, two groups of 3. Here is the method:
The acute toxicity of cytophagin was determined by using mouse as test animals.

The nature of data set [10]: Solubility in various solvents. Type of data set: physicochemical.

In the case of cytophagin, the MIC in data set [1] is 1.56 µg/mL; in data set [2] it was 1.56 µg/mL; in the data set on Candida albicans 3147 it was 50 µg/mL; in the data set on Escherichia coli K-12, more than 100 µg/mL; in [3], 0.1 µg/mL; in data set [4] it was more than 100 µg/mL. Also, the MIC in [5] was more than 100 µg/mL; in the data set with Sarcina lutea PCI 1001 it was 0.1 µg/mL; in [6], 1.56 µg/mL; in data set [7], 1.56 µg/mL; in data set [8] it was 2.5 µg/mL. For the same substance, in data set [9], the “activity against the growth of various Gram-positive bacteria” value is on record as “strongly active”. Moreover, the “acute toxicity (survival)” value with mouse was “All of them (two groups, each consisting of 3 mouse) survived”. Moreover, the Solubility entry in data set [10] (acetic acid) was “Readily soluble”; in [10] (acetone), “hardly soluble”; in [10] (chloroform) it was “hardly soluble”; in data set [10] (dimethylsulfoxide), “Readily soluble”; in [10] (ethanol), “substantially soluble”; in [10] (ethyl acetate), “hardly soluble”. The Solubility result in [10] (ethyl ether) was “hardly soluble”; in data set [10] (methanol), “substantially soluble”; in [10] (water), “hardly soluble”.
